Source: US5578592A, “Cephalosporin derivatives” (Pfizer Inc., priority 1992, dated 1996)

Assays:
Assay type in all cases: cell-based
H. influenzae W/M 493 = assay: In vitro antibacterial activity (MIC), H. influenzae W/M 493; details: Haemophilus influenzae
S. epidermis PHLN20 = assay: In vitro antibacterial activity (MIC), S. epidermis PHLN20
S. aureus Russell = assay: In vitro antibacterial activity (MIC), S. aureus Russell; details: Staphylococcus aureus
E. Coli 10418 = assay: In vitro antibacterial activity (MIC), E. Coli 10418; details: Escherichia coli
H. Influenzae Q1 = assay: In vitro antibacterial activity (MIC), H. Influenzae Q1; details: Haemophilus influenzae
S. aureus Oxford = assay: In vitro antibacterial activity (MIC), S. aureus Oxford; details: Staphylococcus aureus

MIC (H. influenzae W/M 493): 0.5 µg/mL
MIC (S. epidermis PHLN20): 0.25 µg/mL
MIC (S. aureus Russell): 1 µg/mL
MIC (E. Coli 10418): 0.12 µg/mL
MIC (H. Influenzae Q1): < 0.06 µg/mL
MIC (S. aureus Oxford): 0.5 µg/mL
Compound: CO/N=C(\C(=O)N[C@@H]1C(=O)N2C(C(=O)O)=C3[C@H]4Oc5ccccc5[C@H]4[C@@H]3S[C@H]12)c1csc(N)n1 [Example 14, Sodium (4S,8R,9S,11R,12R)-12-[2-(2-aminothiazol-4-yl)-2-(Z)-methoxy-iminoacetamido]-13-oxo-5-oxa-10-thia-1-aza-6,7-benzotetracyclo[9.2.0.0^3,9.0^4,8]tridec-2-ene-carboxylate]
